Like-named read-outs stand apart in the source and are kept apart here.
Columns and labels:
CYP2C9 = CYP2C9 (Homo sapiens (Human), UniProt P11712); test: Cytochrome P450 inhibition in human liver microsomes, CYP2C9
Human plasma stability = assay type: in vitro ADME; conditions: plasma
Protocol: Protocol 1: Studies were carried out in human plasma. All plasma was obtained from Bioreclamation and collected on sodium heparin. Plasma was adjusted to pH 7.4. A DMSO stock was first prepared for the test compound. An aliquot of the DMSO solution was dosed into 1 mL of plasma, which had been pre-warmed to 37° C., at a final test compound concentration of 1 μM. The vials were kept in a benchtop Thermomixer® for the duration of the experiment. Aliquots (100 μL) were taken at each time point (0, 15, 30, 60, and 120 minutes) and added to 96-well plates which had been pre-filled with 300 μL of acetonitrile. Samples were stored at 4° C. until the end of the experiment. After the final time point was sampled, the plate was mixed and then centrifuged at 3,000 rpm for 10 minutes. Aliquots of the supernatant were removed, diluted 1:1 into distilled water, and analyzed by LC-MS/MS. The peak area response ratio to internal standard (PARR) of the compound at 15, 30, 60 and 120 minutes was compared to the PARR at time 0 to determine the percent of test compound remaining at each time point. Half-lives were calculated using GraphPad software, fitting to a single-phase exponential decay equation.
Protocol 2: Studies were carried out in plasma. Plasma was prepared under approval of IRB and IACUC on sodium heparin. The pH of plasma was monitored and used within the range of pH 7.4 to pH 8.0. DMSO stocks were prepared for the test compounds. Aliquots of the DMSO solutions were diluted to 0.05 mM by 0.05 mM Sodium phosphate buffer with 0.5% BSA. Then 10 μL of 0.05 mM solutions were dosed into 90 μL of plasma in duplicates (n=2), which had been pre-warmed to 37° C., at a final test compound concentration of 5 μM. The plates were kept in a 37° C. water bath for the duration of the experiment. At each time point (0, 5, 15, 30, 45, 60, and 120 minutes), 400 μL of acetonitrile was added into corresponding wells. After the final time point was sampled, the plates were shaken at the vibrator (IKA, MTS 2/4) for 10 min (600 rpm/min) and then centrifuged at 5594 g for 15 min (Thermo Multifuge×3R). Aliquots of the supernatant were removed, diluted 1:1 into distilled water, and analyzed by LC-MS/MS. The peak area response ratio to internal standard (PARR) of the compounds at 5, 15, 30, 45, 60, and 120 minutes was compared to the PARR at time 0 to determine the percent of test compound remaining at each time point. Half-lives were calculated using Excel software, fitting to a single-phase exponential decay equation.

[1] = Metabolic stability assay in rat liver microsomes (RLM); assay type: in vitro ADME; conditions: 1 μM
Protocol: (§1) Protocol 1: Studies were carried out in human and rat liver microsomes (“HLM” and “RLM,” respectively). Human and rat liver microsomes were purchased from BD Gentest. DMSO stocks were prepared for the test compounds. Aliquots of the DMSO solutions were diluted to 0.5 mM by acetonitrile, then further diluted by liver microsomes/buffer to 1.5 μM. 30 μL of 1.5 μM solutions were mixed with 15 μL of 6 mM NADPH, which had been pre-warmed to 37° C., at a final test compound concentration of 1 μM. The plates were kept in a 37° C. water bath for the duration of the experiment. At each time point (0, 5, 15, 30, 45 minutes), 135 μL of acetonitrile was added into corresponding wells. After the final time point was sampled, the plates were shaken at a vibrator (IKA, MTS 2/4) for 10 min (600 rpm/min) and then centrifuged at 5594 g for 15 min (Thermo Multifuge×3R). Aliquots of the supernatant were removed, diluted 1:1 into distilled water, and analyzed by LC-MS/MS. The peak area response ratio to internal standard (PARR) of the compounds at 5, 15, 30, 45 minutes was compared to the PARR at time 0 to determine the percent of test compound remaining at each time point. Half-lives were calculated using Excel software, fitting to a single-phase exponential decay equation.
(§2) Protocol 2: Studies were carried out in human and rat liver microsomes. Buffer solutions were prepared as follows: Buffer A: 1.0 L of 0.1 M monobasic Potassium Phosphate buffer containing 1.0 mM EDTA; Buffer B: 1.0 L of 0.1 M Dibasic Potassium Phosphate buffer containing 1.0 mM EDTA; Buffer C: 0.1 M Potassium Phosphate buffer, 1.0 mM EDTA, pH 7.4 by titrating 700 mL of buffer B with buffer A while monitoring with a pH meter.
(§3) Reference compound (Ketanserin) and test compound spiking solutions were prepared as follows: 500 μM spiking solution: add 10 μL of 10 mM DMSO stock solution into 190 μL ACN; 1.5 μM spiking solution in microsomes (0.75 mg/mL): add 1.5 μL of 500 μM spiking solution and 18.75 μL of 20 mg/mL liver microsomes into 479.75 μL of Buffer C.
(§4) NADPH stock solution (6 mM) was prepared by dissolving NADPH into buffer C.
(§5) Assay procedure: 30 μL of 1.5 μM spiking solution containing 0.75 mg/mL microsomes solution was dispensed to the wells designated for […]. The plate was pre-incubated at 37° C. for 10 minutes. 15 μL of NADPH stock solution (6 mM) was added to the wells designated as Time 45, and the timer was started. At 30 mM, 15 mM, and 5 mM, 15 μL NADPH stock solution (6 mM) was added to the wells, respectively. At the end of incubation (0 mM), 135 μL of ACN containing IS was added to all the wells. Then 15 μL of NADPH stock solution (6 mM) was added to the wells designated as Time 0. After quenching, the reaction mixtures were centrifuged at 3220 g for […]. Following centrifugation, 50 μL of the supernatant was transferred from each well into a 96-well sample plate containing 50 μL of ultra-pure water (Millipore) for LC/MS analysis. The peak area response (PARR) ratio to internal standard of the compounds at 5, 15, 30, and 45 minutes was compared to the PARR at time 0 to determine the percent of test compound remaining at each time point. Half-lives were calculated using Excel software, fitting to a single-phase exponential decay equation.

[2] = Metabolic stability assay in human liver microsomes (HLM); assay type: in vitro ADME; conditions: 1 μM
Protocol: as §1, §2, §3, §4, §5

CYP2C19 = CYP2C19 (Homo sapiens (Human), UniProt P33261); test: Cytochrome P450 inhibition in human liver microsomes, CYP2C19
Chain of CYP2C19 (P33261 whole entry): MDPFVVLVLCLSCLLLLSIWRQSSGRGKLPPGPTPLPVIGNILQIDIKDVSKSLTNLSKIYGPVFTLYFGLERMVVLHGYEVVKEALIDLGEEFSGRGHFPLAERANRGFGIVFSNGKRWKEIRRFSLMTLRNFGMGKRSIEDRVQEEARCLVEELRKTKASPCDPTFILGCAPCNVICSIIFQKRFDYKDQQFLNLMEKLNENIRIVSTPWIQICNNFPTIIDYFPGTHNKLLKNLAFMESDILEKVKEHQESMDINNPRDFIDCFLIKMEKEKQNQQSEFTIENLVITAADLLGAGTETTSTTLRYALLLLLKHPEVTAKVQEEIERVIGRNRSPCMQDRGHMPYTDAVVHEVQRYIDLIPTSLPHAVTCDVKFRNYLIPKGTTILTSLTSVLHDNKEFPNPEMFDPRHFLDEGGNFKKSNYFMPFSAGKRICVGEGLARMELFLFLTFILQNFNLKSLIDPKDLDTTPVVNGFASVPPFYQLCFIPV

CYP1A2 = CYP1A2 (Homo sapiens (Human), UniProt P05177); test: Cytochrome P450 inhibition in human liver microsomes, CYP1A2
Chain of CYP1A2 (P05177 whole entry): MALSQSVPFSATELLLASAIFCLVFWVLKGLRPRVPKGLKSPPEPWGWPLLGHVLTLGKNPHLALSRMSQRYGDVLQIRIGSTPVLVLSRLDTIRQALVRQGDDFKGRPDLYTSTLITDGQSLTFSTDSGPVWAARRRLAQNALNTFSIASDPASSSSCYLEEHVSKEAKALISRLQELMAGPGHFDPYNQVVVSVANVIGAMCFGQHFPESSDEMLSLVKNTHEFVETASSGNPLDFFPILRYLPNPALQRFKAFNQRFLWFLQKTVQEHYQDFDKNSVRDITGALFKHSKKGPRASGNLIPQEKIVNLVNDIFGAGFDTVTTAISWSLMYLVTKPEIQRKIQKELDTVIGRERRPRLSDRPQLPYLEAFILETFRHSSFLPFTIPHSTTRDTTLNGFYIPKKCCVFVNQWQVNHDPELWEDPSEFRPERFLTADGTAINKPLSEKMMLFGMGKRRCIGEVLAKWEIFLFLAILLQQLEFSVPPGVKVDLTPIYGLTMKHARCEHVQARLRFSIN

[3] = molecular target: rat brain nicotinic receptor (α7 NAChR) (Rattus norvegicus (Rat), UniProt Q05941); assay type: binding
Chain of rat brain nicotinic receptor (α7 NAChR) (Q05941 23-502 limits assumed): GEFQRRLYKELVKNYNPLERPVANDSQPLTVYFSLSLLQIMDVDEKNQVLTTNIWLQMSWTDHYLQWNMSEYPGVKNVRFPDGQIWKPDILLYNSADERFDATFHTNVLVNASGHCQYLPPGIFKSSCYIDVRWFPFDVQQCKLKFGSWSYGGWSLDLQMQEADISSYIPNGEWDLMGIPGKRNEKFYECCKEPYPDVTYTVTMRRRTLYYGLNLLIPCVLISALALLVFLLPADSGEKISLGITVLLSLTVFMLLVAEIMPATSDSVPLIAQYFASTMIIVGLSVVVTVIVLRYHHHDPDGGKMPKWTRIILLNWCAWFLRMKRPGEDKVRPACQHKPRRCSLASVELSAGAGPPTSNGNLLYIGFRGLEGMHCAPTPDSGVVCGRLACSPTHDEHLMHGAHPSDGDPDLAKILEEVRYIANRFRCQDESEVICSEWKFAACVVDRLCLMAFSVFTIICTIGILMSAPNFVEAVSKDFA

CYP3A4 = CYP3A4 (Homo sapiens (Human), UniProt P08684); test: Cytochrome P450 inhibition in human liver microsomes, CYP3A4
Chain of CYP3A4 (P08684 whole entry): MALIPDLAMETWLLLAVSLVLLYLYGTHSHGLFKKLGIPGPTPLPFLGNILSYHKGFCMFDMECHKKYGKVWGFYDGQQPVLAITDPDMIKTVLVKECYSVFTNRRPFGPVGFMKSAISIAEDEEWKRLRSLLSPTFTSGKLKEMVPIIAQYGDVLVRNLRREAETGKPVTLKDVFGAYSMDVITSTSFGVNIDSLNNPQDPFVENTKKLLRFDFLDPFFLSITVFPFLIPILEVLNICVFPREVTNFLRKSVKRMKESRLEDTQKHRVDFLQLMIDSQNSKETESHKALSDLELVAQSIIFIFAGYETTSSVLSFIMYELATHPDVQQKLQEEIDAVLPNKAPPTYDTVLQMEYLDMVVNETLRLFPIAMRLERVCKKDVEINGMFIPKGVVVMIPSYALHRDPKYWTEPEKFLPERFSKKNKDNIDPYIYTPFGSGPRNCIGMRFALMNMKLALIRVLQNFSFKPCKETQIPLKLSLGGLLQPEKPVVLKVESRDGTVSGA

[4] = read-out: 2C19 IC50, Protocol 2

Chain of CYP2C9 (P11712 whole entry): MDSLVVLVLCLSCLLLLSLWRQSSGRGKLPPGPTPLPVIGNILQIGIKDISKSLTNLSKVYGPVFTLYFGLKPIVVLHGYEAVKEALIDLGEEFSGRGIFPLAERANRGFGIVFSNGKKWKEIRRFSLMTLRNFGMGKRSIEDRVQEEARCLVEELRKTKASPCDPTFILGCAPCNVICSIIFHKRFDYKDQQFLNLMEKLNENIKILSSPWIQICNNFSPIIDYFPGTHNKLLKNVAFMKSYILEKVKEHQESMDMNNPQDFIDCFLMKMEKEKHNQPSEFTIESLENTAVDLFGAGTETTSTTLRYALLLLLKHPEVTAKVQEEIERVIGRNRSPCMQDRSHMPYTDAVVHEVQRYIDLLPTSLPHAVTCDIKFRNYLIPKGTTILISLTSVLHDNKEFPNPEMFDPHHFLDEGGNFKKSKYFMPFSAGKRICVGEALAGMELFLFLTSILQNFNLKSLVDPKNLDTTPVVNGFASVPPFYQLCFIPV

Structure (SMILES) | IC50 (CYP2C9; read-out: 2C9 IC50, Protocol 2) [µM] | % Remaining @ 2 h (Human plasma stability; human, 2 h, 1 μM, pH 7.4) [%] | half-life at 1 μM (Human plasma stability; human, pH 7.4) [min] | RLM ([1]; rat, microsomes, pH 7.4) [L/h/kg] | HLM ([2]; human, microsomes, pH 7.4) [L/h/kg] | IC50 (CYP2C19; [4]) [µM] | IC50 (CYP1A2; read-out: 1A2 IC50, Protocol 2) [µM] | IC50 [3] [µM] | Ki [3] [µM] | IC50 (CYP2C9; read-out: 2C9 IC50, Protocol 1) [µM] | % Remaining @ 2 h (Human plasma stability; Protocol No. 2, 5 μM, 37° C.) [%] | RLM ([1]; Protocol No. 1, rat liver microsomes) [L/h/kg] | IC50 (CYP3A4; read-out: 3A4 IC50 (Midazolam), substrate midazolam, Protocol 1) [µM] | IC50 (CYP3A4; read-out: 3A4 IC50 (Testosterone), substrate testosterone, Protocol 1) [µM] | HLM ([2]; Protocol No. 1, human liver microsomes) [L/h/kg] | IC50 (CYP2C19; read-out: 2C19 IC50, Protocol 1) [µM] | IC50 (CYP1A2; read-out: 1A2 IC50, Protocol 1) [µM]
O=C(OCC12CCN(CC1)CC2)c1c[nH]c2ccc(F)cc12 [Compound 12, quinuclidin-4-ylmethyl 5-fluoro-1H-indole-3-carboxylate] | > 10 | 31 | 73.8 | 12.524 | <0.81648 | > 10 | > 10 | 0.0866 | 0.0751 | – | – | – | – | – | – | – | –
O=C(OCC12CCN(CC1)CC2)c1c[nH]c2ccc(O)cc12 [Compound 15, quinuclidin-4-ylmethyl 5-hydroxy-1H-indole-3-carboxylate] | > 10 | – | – | 1.555 | <0.81648 | > 10 | > 10 | 0.153 | 0.132 | – | – | – | – | – | – | – | –
Cl.O=C(OCC12CCN(CC1)CC2)c1c[nH]c2cc(Cl)c(F)cc12 [Compound 52, Quinuclidin-4-ylmethyl 6-chloro-5-fluoro-1H-indole-3-carboxylate hydrochloride] | – | – | – | – | – | – | – | – | – | > 10 | 85.8425 | 20.7304 | > 10 | > 10 | 0.2402 | > 10 | > 10
COc1cccc2c(C(=O)OCC34CCN(CC3)CC4)c[nH]c12 [Compound 16, quinuclidin-4-ylmethyl 7-methoxy-1H-indole-3-carboxylate] | > 10 | – | – | 4.96003 | <0.81648 | > 10 | > 10 | 1.4 | 1.21 | – | – | – | – | – | – | – | –
Cc1ccc2[nH]cc(C(=O)OCC34CCN(CC3)CC4)c2c1 [Compound 20, quinuclidin-4-ylmethyl 5-methyl-1H-indole-3-carboxylate] | – | 14 | 41.2 | 16.5674 | <0.81648 | – | > 10 | 0.0681 | 0.0601 | – | – | – | – | – | – | – | –
O=C(OCC12CCN(CC1)CC2)c1c[nH]c2ccccc12 [Compound 1, quinuclidin-4-ylmethyl 1H-indole-3-carboxylate] | > 10 | 11 | 38.5 | 6.3504 | <0.81648 | > 10 | > 10 | 0.0318 | 0.0276 | – | – | – | – | – | – | – | –
COc1ccc2c(C(=O)OCC34CCN(CC3)CC4)c[nH]c2c1 [Compound 17, quinuclidin-4-ylmethyl 6-methoxy-1H-indole-3-carboxylate] | – | – | – | 2.28991 | <0.81648 | – | > 10 | 0.376 | 0.329 | – | – | – | – | – | – | – | –

— patent publication US9434724B2, “Quinuclidines for modulating alpha 7 activity” (priority 2014, dated 2016)
